Where a SMILES comes first, the peptide text is derived from it. The star is where a group is joined. X1 = CC1(C)CC[C@]2(C(=O)*)CC[C@]3(C)C(=CCC4[C@@]5(C)CC[C@H](O)C(C)(C)C5CC[C@]43C)C2C1
Experiments:
Nitric Oxide (NO) = assay: Extracellular nitric oxide from LPS-challenged human neutrophils; assay type: cell-based; settings: for % activity NO expression against LPS control: ↓ = inhibition
Method: (§1) Experimental observations were made in human neutrophil that were challenged with LPS. […] Rolipram at 100 μg/ml dose level was used as a standard drug to observe the authenticity and reproducibility of the experimental design.
(§2) The Oleanoyl peptide was also screened for NO and PGE2 expression.

Human osteosarcoma cells = assay: Collagen enhancement by Sirius Red staining; assay type: cell-based; settings: at 1.25 ppm, 48 hrs, vs untreated cells
Method: Collagen enhancement was determined by using Sirius Red stain that binds with a greater specificity to Collagen type I and Collagen type III of the extracellular matrix. The stain bound to the collagen is dissolved and the optical density (OD) is measured spectrophotometrically using a Fluostar optima microtiter plate reader at 544 nm. The OD of the stain bound to collagen is directly proportional to the collagen content in the cells.
Human osteosarcoma cells from human bone were used for collagen enhancement studies. The cells were seeded with a seeding density of 10000 cells per well of a 24 well plate. Confluent monolayers of cells were initially treated with varying non cytotoxic concentrations of Oleanoyl peptide and vehicle (control) in the culture medium. For each concentration, 4 replicates were maintained and the analysis was performed twice such that the ‘n’ value is 8. After sample treatment, the cells were incubated in a CO2 incubator for 48 hrs. The cells were then developed by Sirius red staining technique to analyze the collagen enhancement. The cells were washed extensively with PBS. The cells were fixed using Bouin's fluid containing 1.3% picric acid, 35% formaldehyde and glacial acetic acid in 15:5:1 ration by incubating with 1 ml of Bouin's fluid per well for 1 hr at RT. The fixative is then removed by suction with micropipette and the cells were washed under running tap water for 15 minutes. After air drying the culture plate, the cells were stained using 0.1% Sirius red stain in 1.3% picric acid. 1 ml per well Sirius red stain was added and the cells were incubated for 1 hr under mild shaking of 70 RPM at RT in Orbitek Shaker. The stain was then removed by suction and the cells were extensively washed with 0.01N HCl to remove unbound dye. The dye bound to collagen was then dissolved in 0.2 ml of 0.1N NaOH per well for 30 minutes under mild shaking of 70 RPM in Orbitek Shaker at RT. The dye was then transferred to 96 well microplate and the OD was read at 544 nm in Fluostar Optima microplate reader.
The percentage enhancement in collagen with respect to the untreated cells considering the OD of untreated cells as optimal under normal conditions is calculated as follows, % enhancement in […]=[(100/C)×T]−100 Where C=absorbance due to collagen in untreated cells
T=absorbance due to collagen in sample treated cells

LTB4 = LTB4 inhibition (same procedure as TNF α); assay type: cell-based, human; settings: at 0.625 μg/ml
From the text: The above procedure is also followed for determining LTB4 inhibition by Oleanoyl peptide. From the results tabulated in table 1, it is clear that Oleanoyl peptide is a better TNF α and LTB4 inhibitor.

[1] = target: Collagenase Type IV from Clostridium histolyticum; settings: Collagenase Type IV 0.2 U/ml, DQ gelatin, 30 minutes
Prostaglandin E2 (PGE2) = assay: Extracellular PGE2 from LPS-challenged human neutrophils; assay type: cell-based; settings: for % activity PGE2 expression against LPS control: ↓ = inhibition
Method: as §1, §2

[2] = system: B16F1 mouse melanoma cells; assay: Melanin inhibition in α-MSH induced melanoma cells; assay type: cell-based
Method: B16F1 mouse melanoma cells were seeded in a 6 well microtiter plate at a seeding density of 5000 cells per well in 2 ml DMEM medium per well. After 24 hours of incubation in a CO2 incubator, melanin production is induced by 0.1 nM ∝-MSH by replacing the medium with medium containing ∝-MSH. The cells were then treated with varying concentrations of sample (composition containing oleanoyl peptide and stilbenes/licorice extract/THC) over a period of 9 days with renewal of ∝-MSH containing medium and sample at regular intervals of 3 days. Control wells were maintained without sample treatment and only with the vehicle used for sample preparation. After the incubation period, the medium was removed and the cells were scraped and washed in PBS. Thereafter, melanin was extracted by 1N NaOH in boiling water bath for 5 minutes. The absorbance of the melanin extract was read at 405 nm in a microplate reader. The inhibitory effect of the sample is calculated based on the decrease of melanin formation.
T=absorbance due to melanin in the presence of inhibitor

[3] = target: porcine pancreatic elastase (Sus scrofa, UniProt P00772); assay: EnzChek Elastase Assay, elastase inhibitory potential
porcine pancreatic elastase, sequence (P00772 27-266): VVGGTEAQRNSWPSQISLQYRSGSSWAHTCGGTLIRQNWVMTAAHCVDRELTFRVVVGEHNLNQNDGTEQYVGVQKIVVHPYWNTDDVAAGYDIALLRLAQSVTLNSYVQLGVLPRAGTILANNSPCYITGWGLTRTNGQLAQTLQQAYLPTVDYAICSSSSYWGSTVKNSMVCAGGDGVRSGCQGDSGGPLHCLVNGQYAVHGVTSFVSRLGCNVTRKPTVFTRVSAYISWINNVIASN
From the text: The EnzChek kit contains DQelastin, fluorescein conjugated soluble bovine neck ligament elastin. This substrate is efficiently digested by elastase to yield highly fluorescent peptides. […] Elastase used for the assay is purified from porcine pancreas.
T=absorbance due to elastase activity in the presence of inhibitor

human skin = assay: Effect of Oleanoyl peptide cream on human facial skin; assay type: in vivo; settings: cream with Oleanoyl peptide (0.01%), twice daily, three weeks, photographs
Method: To study the potential effect of Oleanoyl peptide on human skin, candidates were selected in-house whose age ranging from about 30 to 60 with moderate to severe signs of aging. A topical composition comprising Oleanoyl peptide (0.01%) was prepared as a cream for application on the skin.
The cream containing Oleanoyl peptide was applied on the affected areas of facial skin of the candidates twice daily for a continuous period of three weeks. Photographs of the candidates were taken before and after three weeks of application of the cream.

[4] = test sample 2 μg/ml, listed as OP

SMILES: C[C@@H](O)[C@H](NC(=O)[C@H](CCCCN)NC(=O)[C@]12CCC(C)(C)CC1C1=CCC3[C@@]4(C)CC[C@H](O)C(C)(C)C4CC[C@@]3(C)[C@]1(C)CC2)C(=O)N[C@H](C(=O)N[C@@H](CCCCN)C(=O)N[C@@H](CO)C(=O)O)[C@@H](C)O (stereo partly drawn) [Oleanoyl peptide, Oleanoyl-Lys-Thr-Thr-Lys-Ser-OH] (X1-KTTKS-OH)
- Concentration of NO produced (μmol/ml) Mean ± S.E. (Nitric Oxide (NO); test sample 0.125 μg/ml): 42.77 ± 1.42 µmol/mL
- Concentration of NO produced (μmol/ml) Mean ± S.E. (Nitric Oxide (NO); test sample 0.25 μg/ml): 41.21 ± 1.05 µmol/mL
- Concentration of NO produced (μmol/ml) Mean ± S.E. (Nitric Oxide (NO); test sample 0.5 μg/ml): 39.25 ± 1.08 µmol/mL
- Concentration of NO produced (μmol/ml) Mean ± S.E. (Nitric Oxide (NO); test sample 1 μg/ml): 34.12 ± 2.00 µmol/mL
- Concentration of NO produced (μmol/ml) Mean ± S.E. (Nitric Oxide (NO); test sample 2 μg/ml): 30.21 ± 1.18 µmol/mL
- % activity NO expression against LPS control (Nitric Oxide (NO); test sample 0.125 μg/ml): 3.51↓ %
- % activity NO expression against LPS control (Nitric Oxide (NO); test sample 0.25 μg/ml): 7.03↓ %
- % activity NO expression against LPS control (Nitric Oxide (NO); test sample 0.5 μg/ml): 11.45↓ %
- % activity NO expression against LPS control (Nitric Oxide (NO); test sample 1 μg/ml): 23.03↓ %
- % activity NO expression against LPS control (Nitric Oxide (NO); test sample 2 μg/ml): 31.85%
- % activity NO expression against LPS control (Nitric Oxide (NO); [4]): 31.85↓ %
- % activity NO expression against LPS control (Nitric Oxide (NO); test sample 4 μg/ml): 29.66↓ %
- enhancement in collagen (Human osteosarcoma cells): 17%
- LTB4 inhibition, % inhibition (LTB4): 26%
- Collagenase inhibition (IC50 μg/ml) [1]: 119 µg/mL
- Concentration of PGE2 produced (pg/ml) Mean ± S.E. (Prostaglandin E2 (PGE2); test sample 0.125 μg/ml): 573.82 ± 6.08 pg/mL
- Concentration of PGE2 produced (pg/ml) Mean ± S.E. (Prostaglandin E2 (PGE2); test sample 0.25 μg/ml): 501.64 ± 7.56 pg/mL
- Concentration of PGE2 produced (pg/ml) Mean ± S.E. (Prostaglandin E2 (PGE2); test sample 0.5 μg/ml): 468.31 ± 6.41 pg/mL
- Concentration of PGE2 produced (pg/ml) Mean ± S.E. (Prostaglandin E2 (PGE2); test sample 1 μg/ml): 419.53 ± 5.07 pg/mL
- Concentration of PGE2 produced (pg/ml) Mean ± S.E. (Prostaglandin E2 (PGE2); test sample 2 μg/ml): 384.44 ± 8.02 pg/mL
- Concentration of PGE2 produced (pg/ml) Mean ± S.E. (Prostaglandin E2 (PGE2); test sample 4 μg/ml): 395.81 ± 4.68 pg/mL
- % activity PGE2 expression against LPS control (Prostaglandin E2 (PGE2); test sample 0.125 μg/ml): 25.37↓ %
- % activity PGE2 expression against LPS control (Prostaglandin E2 (PGE2); test sample 0.25 μg/ml): 34.76↓ %
- % activity PGE2 expression against LPS control (Prostaglandin E2 (PGE2); test sample 0.5 μg/ml): 39.09↓ %
- % activity PGE2 expression against LPS control (Prostaglandin E2 (PGE2); test sample 1 μg/ml): 45.44↓ %
- % activity PGE2 expression against LPS control (Prostaglandin E2 (PGE2); test sample 2 μg/ml): 50.00%
- % activity PGE2 expression against LPS control (Prostaglandin E2 (PGE2); [4]): 50.00↓ %
- % activity PGE2 expression against LPS control (Prostaglandin E2 (PGE2); test sample 4 μg/ml): 48.52↓ %
- reduction in melanin ([2]; result in words, FIG. 15): no significant reduction in melanin
- Melanin inhibition IC50 (μg/ml), Individual active ([2]; α-MSH induced, 9 days): Not significant
- IC50 [3]: 143 µM
- effect on dark circles under the eye (human skin): reduction of dark circles under the eye
- effect on hyperpigmentation (human skin): reduction in hyperpigmentation
- effect on skin thickness (human skin): improvement in skin thickness
- effect on wrinkles (human skin): wrinkles are softened

Reference: patent US8987212B2, “Oleanoyl peptide composition and method of treating skin aging” (priority 2007, dated 2015)
